The values below come from article PMC4844368 (The Biochemical journal, 2015).

In one data set the target is T1, CASK (Homo sapiens, UniProt O14936).
T1 sequence (O14936 1-337): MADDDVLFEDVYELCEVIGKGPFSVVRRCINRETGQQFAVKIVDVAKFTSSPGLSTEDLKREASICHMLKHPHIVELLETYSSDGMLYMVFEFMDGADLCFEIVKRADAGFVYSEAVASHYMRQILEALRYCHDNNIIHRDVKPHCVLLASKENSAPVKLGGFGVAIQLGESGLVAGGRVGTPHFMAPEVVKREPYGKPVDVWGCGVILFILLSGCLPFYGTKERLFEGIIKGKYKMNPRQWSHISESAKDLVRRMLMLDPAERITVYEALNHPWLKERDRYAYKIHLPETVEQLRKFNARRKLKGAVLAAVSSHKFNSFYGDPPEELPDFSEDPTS
The data set can be described thus: Sypro Orange thermal shift. The format is binding. To be noted: ATP dose series, 2 mM EDTA, TRB buffer pH 9.0.

Data set [1] deals with T2, TRB2 (Homo sapiens, UniProt Q92519, K90A).
T2 sequence (Q92519 1-343 K90A): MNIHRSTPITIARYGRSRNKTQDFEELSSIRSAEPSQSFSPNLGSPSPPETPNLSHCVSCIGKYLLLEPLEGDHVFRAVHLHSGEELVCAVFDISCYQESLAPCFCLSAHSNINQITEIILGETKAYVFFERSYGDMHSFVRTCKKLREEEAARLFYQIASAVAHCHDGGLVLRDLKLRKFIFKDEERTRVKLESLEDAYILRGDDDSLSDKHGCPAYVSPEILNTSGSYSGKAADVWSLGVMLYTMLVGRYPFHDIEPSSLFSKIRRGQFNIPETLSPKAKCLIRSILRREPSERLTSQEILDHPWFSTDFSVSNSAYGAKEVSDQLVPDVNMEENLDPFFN
The data set can be described thus: intrinsic fluorescence thermal shift. The format is binding. As to conditions: 1 mM ATP, 2 mM EDTA, TRB buffer pH 9.0.

Data set [2] deals with T3, TRB2 (Homo sapiens, UniProt Q92519).
T3 sequence (Q92519 1-343): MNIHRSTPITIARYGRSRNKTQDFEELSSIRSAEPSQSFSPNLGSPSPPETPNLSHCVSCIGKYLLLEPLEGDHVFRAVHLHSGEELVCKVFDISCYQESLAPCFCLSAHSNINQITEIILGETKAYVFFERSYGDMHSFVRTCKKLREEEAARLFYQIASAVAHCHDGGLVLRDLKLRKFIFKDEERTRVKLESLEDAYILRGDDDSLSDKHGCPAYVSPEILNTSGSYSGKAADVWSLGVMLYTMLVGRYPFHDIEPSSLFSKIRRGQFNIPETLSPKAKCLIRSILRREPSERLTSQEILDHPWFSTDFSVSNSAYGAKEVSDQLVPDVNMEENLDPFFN
As to the kind of experiment: intrinsic fluorescence thermal shift. The format is binding. As to conditions: 1 mM ATP, 2 mM EDTA, TRB buffer pH 9.0.

Another data set concerns the target T4, Aurora A (Homo sapiens, UniProt O14965).
T4 sequence (O14965 1-403): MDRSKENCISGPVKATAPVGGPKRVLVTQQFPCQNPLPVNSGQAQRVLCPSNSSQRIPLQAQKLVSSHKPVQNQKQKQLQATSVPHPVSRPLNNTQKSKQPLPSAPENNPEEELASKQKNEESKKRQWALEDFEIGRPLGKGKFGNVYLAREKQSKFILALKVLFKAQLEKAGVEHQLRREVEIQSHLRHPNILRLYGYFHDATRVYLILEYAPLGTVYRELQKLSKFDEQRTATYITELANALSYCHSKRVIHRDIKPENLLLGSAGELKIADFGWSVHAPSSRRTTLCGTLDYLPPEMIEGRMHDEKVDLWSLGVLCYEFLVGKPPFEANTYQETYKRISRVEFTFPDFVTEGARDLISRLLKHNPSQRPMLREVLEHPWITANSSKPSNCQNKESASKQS
The data set can be described thus: intrinsic fluorescence thermal shift. The format is binding. To be noted: 1 mM ATP, 10 mM Mg2+, no EDTA, TRB buffer pH 9.0.

Data set [3] has as its target T5, TRB2 (Homo sapiens, UniProt Q92519, K90M).
T5 sequence (Q92519 1-343 K90M): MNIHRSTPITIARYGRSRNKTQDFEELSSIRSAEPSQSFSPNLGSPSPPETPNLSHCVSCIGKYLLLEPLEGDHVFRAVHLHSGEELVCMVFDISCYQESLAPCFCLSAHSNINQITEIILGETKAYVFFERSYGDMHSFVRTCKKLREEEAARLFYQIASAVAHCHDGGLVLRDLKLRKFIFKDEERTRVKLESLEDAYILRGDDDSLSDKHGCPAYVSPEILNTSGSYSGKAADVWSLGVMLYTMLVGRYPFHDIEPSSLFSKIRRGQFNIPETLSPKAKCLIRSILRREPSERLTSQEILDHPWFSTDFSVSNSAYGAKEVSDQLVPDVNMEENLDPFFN
The data set can be described thus: intrinsic fluorescence thermal shift. The format is binding. To be noted: 1 mM ATP, 2 mM EDTA, TRB buffer pH 9.0.

Substrate in the data set “purified protein”: Nc1ncnc2c1ncn2[C@@H]1O[C@H](COP(=O)(O)OP(=O)(O)OP(=O)(O)O)[C@@H](O)[C@H]1O
The data set can be described thus: purified protein. The format is biochemical, Homo sapiens. To be noted: co-substrate histone H3; Mg2+-ATP.

What is called ΔTm is the shift of the melting midpoint relative to a reference. For `Nc1ncnc2c1ncn2[C@@H]1O[C@H](COP(=O)(O)OP(=O)(O)OP(=O)(O)O)[C@@H](O)[C@H]1O` [ATP], the ΔTm result is “both CASK and TRB2 exhibited demonstrable dose-dependent binding to ATP” on CASK; 0.23 °C at TRB2 [1]; 3.64 °C at TRB2 [2]; 2.99 °C on Aurora A; 1.59 °C on TRB2 [3].

B1: Aurora A (Homo sapiens) (protein)
chain: MDRSKENCISGPVKATAPVGGPKRVLVTQQFPCQNPLPVNSGQAQRVLCPSNSSQRIPLQAQKLVSSHKPVQNQKQKQLQATSVPHPVSRPLNNTQKSKQPLPSAPENNPEEELASKQKNEESKKRQWALEDFEIGRPLGKGKFGNVYLAREKQSKFILALKVLFKAQLEKAGVEHQLRREVEIQSHLRHPNILRLYGYFHDATRVYLILEYAPLGTVYRELQKLSKFDEQRTATYITELANALSYCHSKRVIHRDIKPENLLLGSAGELKIADFGWSVHAPSSRRTTLCGTLDYLPPEMIEGRMHDEKVDLWSLGVLCYEFLVGKPPFEANTYQETYKRISRVEFTFPDFVTEGARDLISRLLKHNPSQRPMLREVLEHPWITANSSKPSNCQNKESASKQS
As usually defined, the Km is the concentration of substrate that gives half-maximal velocity. For the molecule B1, the Km in the data set “purified protein” amounted to 14.3 ± 2.6 µM.
